Paper PMC10837223, “Acute antiarrhythmic effects of SGLT2 inhibitors–dapagliflozin lowers the excitability of atrial cardiomyocytes” (Basic Research in Cardiology, 2024)

Biological target: T1, NaV1.5 (Homo sapiens, UniProt Q14524, Y1767A)
T1 construct: gene SCN5A
Test: cell-based
Conditions: CHO, read-out: % reduction at 100 μmol/L

T1 sequence (Q14524 whole entry Y1767A): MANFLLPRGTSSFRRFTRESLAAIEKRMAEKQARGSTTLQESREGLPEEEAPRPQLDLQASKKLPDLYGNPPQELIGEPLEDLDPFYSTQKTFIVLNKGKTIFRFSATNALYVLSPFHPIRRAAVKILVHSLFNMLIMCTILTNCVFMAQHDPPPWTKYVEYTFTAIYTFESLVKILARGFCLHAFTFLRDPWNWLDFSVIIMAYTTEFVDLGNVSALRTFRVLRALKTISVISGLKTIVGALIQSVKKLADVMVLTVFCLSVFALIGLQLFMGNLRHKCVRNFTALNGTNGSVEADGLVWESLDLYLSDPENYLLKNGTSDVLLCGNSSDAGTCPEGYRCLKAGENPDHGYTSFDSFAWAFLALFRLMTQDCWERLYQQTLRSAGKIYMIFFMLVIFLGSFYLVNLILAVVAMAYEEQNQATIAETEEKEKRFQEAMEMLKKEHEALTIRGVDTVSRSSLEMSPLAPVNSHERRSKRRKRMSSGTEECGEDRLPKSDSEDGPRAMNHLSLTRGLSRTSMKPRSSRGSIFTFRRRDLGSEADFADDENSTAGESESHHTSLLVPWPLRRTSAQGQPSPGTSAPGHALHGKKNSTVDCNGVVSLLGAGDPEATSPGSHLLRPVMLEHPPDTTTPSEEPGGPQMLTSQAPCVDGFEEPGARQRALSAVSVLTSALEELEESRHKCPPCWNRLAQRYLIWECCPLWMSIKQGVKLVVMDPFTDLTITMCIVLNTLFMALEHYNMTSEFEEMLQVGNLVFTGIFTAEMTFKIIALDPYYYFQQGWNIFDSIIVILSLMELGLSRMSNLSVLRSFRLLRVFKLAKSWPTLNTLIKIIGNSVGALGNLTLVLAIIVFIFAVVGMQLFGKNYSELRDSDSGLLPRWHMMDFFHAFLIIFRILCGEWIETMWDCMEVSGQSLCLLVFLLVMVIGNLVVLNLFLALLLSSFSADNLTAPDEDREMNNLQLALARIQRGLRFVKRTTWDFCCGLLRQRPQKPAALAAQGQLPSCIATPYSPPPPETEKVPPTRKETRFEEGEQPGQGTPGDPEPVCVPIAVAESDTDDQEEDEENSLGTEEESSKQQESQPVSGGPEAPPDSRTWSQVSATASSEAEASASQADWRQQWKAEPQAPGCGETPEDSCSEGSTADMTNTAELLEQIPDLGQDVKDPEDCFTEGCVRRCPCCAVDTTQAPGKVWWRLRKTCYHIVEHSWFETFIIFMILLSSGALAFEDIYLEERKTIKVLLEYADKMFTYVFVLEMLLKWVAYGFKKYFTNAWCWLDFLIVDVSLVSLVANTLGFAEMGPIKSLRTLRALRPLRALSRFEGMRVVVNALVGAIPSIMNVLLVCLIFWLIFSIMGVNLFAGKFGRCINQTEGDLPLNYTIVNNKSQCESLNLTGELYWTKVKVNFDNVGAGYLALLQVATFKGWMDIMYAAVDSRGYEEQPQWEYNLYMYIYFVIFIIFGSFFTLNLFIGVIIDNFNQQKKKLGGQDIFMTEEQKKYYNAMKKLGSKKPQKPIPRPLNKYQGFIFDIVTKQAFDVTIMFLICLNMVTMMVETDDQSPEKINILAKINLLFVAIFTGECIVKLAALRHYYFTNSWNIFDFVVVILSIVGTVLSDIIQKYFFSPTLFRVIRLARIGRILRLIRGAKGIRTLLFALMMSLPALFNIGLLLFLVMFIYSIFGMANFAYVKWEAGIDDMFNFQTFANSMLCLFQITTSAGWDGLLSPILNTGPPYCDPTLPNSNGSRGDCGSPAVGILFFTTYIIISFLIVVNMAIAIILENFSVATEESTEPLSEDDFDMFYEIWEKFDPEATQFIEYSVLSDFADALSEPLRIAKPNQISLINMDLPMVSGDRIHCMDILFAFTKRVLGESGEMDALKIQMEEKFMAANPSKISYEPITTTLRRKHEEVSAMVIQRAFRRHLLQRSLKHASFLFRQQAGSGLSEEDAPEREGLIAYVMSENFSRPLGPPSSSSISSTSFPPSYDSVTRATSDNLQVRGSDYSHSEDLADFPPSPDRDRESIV

With `CCOc1ccc(Cc2cc([C@@H]3O[C@H](CO)[C@@H](O)[C@H](O)[C@H]3O)ccc2Cl)cc1` [dapagliflozin] the inhibition at 100 µM was 68.3 ± 4.2%.
